The record followed here is US6413947B1, “Anilide derivative, production and use thereof” (Takeda Chemical Industries, Ltd., priority 1997, dated 2002).

Each structure is given as a SMILES string. Structures can show the parent of a compound that is named as a salt.

`Cc1ccc(-c2ccc3c(c2)C=C(C(=O)Nc2ccc(C(O)CN4CCCCC4)cc2)CCO3)cc1` (stereo not shown) [Compound 145, N-(4—(1-hydroxy-2-piperidinoethyl)phenyl)-7—(4-methylphenyl)-2,3-dihydro-1-benzoxepine-4-carboxamide] displayed a melting point of 212 to 213 °C.

With `Cc1ccc(-c2ccc3c(c2)C=C(C(=O)Nc2ccc(CNc4ccccc4)cc2)CCO3)cc1` [Compound 115, N-(4—((phenylamino)methyl)phenyl)-7—(4-methylphenyl)-2,3-dihydro-1-benzoxepine-4-carboxamide], the melting point lay in the range of 157 to 158 °C.

`Cc1ccc(-c2ccc3c(c2)C=C(C(=O)Nc2ccc(CNC4CCCCC4)cc2)CCO3)cc1` [Compound 114, N-(4—((cyclohexylamino)methyl)phenyl)-7—(4-methylphenyl)-2,3-dihydro-1-benzoxepine-4-carboxamide] gave a melting point of 183 to 184 °C.

Consider `Cc1ccc(-c2ccc3c(c2)C=C(C(=O)Nc2ccc(CN4CCN(CCO)CC4)cc2)CC3)cc1` [Compound 46, N-[4-[1—(2-hydroxyethyl)-4-piperazinylmethyl]phenyl]-7—(4-methylphenyl)-3,4-dihydronaphthalene-2-carboxamide], for which the melting point was in the range of 185 to 187 °C.

For `Cc1ccc(-c2ccc3c(c2)C=C(C(=O)Nc2ccc(C(O)c4cccc[n+]4[O-])cc2)C(C)O3)cc1` (stereo not shown) [Compound 203, N-[4-[hydroxy(1-oxidopyridin-2-yl)-methyl]phenyl]-6—(4-methylphenyl)-2-methyl-2H-1-benzopyran-3-carboxamide], the melting point is 230 to 232 °C.

`Cc1ccc(-c2ccc3c(c2)C=C(C(=O)Nc2ccc(CS(=O)(=O)C4CCCCC4)cc2)CCO3)cc1` [Compound 107, N-(4—(cyclohexylsulfonylmethyl)phenyl)-7—(4-methylphenyl)-2,3-dihydro-1-benzoxepine-4-carboxamide]: the melting point is 250 to 251 °C.

The molecule `CCP(=O)(CC)Cc1ccc(NC(=O)C2=Cc3cc(-c4ccc(C)cc4)ccc3OCC2)cc1` [Compound 163, N-(4-diethylphosphorylmethylphenyl)-7—(4-methylphenyl)-2,3-dihydro-1-benzoxepine-4-carboxamide] came in with a melting point of 240 to 241 °C.

Consider `Cc1ccc(-c2ccc3c(c2)C=C(C(=O)Nc2ccc(CNc4cccnc4)cc2)CC3)cc1` [Compound 47, 7—(4-methylphenyl)-N-[4-[N-(3-pyridyl)aminomethyl]phenyl]-3,4-dihydronaphthalene-2-carboxamide], for which the melting point was in the range of 212 to 214 °C.

Consider `Cc1ccc(-c2ccc3c(c2)C=C(C(=O)Nc2ccc(Cc4c(O)ccc[n+]4[O-])cc2)CCO3)cc1` [Compound 175, N-[4—(1-oxido-3-hydroxypyridin-2-ylmethyl)phenyl]-7—(4-methylphenyl)-2,3-dihydro-1-benzoxepine-4-carboxamide], for which the melting point is 254 °C (dec.).

In turn, `CCOc1ccc(-c2ccc3c(c2)C=C(C(=O)Nc2ccc(C[N+](C)(C)C4CCOCC4)cc2)CCO3)cc1` (as salt: chloride) [Compound 250, N-(4-(((7-(4-ethoxyphenyl)-2,3-dihydro-1-benzoxepin-4-yl)carbonyl)amino)benzyl)-N,N-dimethyl-N-(4-tetrahydropyranyl)ammonium chloride] registered a melting point of 200 to 204 °C.

Molecule `CN(Cc1ccc(NC(=O)/C=C/c2ccc(-c3ccc(C(C)(C)C)cc3)s2)cc1)C1CCOCC1` [Compound 276, (E)-3-[5-(4-tert-butylphenyl)thiophen-2-yl]-N-[4-[N-methyl-N-(tetrahydropyran-4-yl)aminomethyl]phenyl]acrylamide] showed a melting point of 216 to 220 °C.

On to `CCOCCCN(C)Cc1ccc(NC(=O)C2=Cc3cc(-c4ccc(C)cc4)ccc3OCC2)cc1` [Compound 312, N-(4-((N-(3-ethoxypropyl)-N-methylamino)methyl)phenyl)-7-(4-methylphenyl)-2,3-dihydro-1-benzoxepine-4-carboxamide], for which the melting point is 119 to 122 °C.

With `Cc1ccc(-c2ccc3nc(C)c(C(=O)Nc4ccc(CN(C)C5CCOCC5)cc4)cc3c2)cc1` [Compound 216, N-[4-[N-methyl-N-(tetrahydropyran-4-yl)aminomethyl]phenyl]-6—(4-methylphenyl)-2-methylquinoline-3-carboxamide], the melting point was 157 to 160 °C.

`COCOc1ccc[n+]([O-])c1Cc1ccc(NC(=O)C2=Cc3cc(-c4ccc(C)cc4)ccc3OCC2)cc1` [Compound 173, N-[4—(1-oxido-3-methoxymethoxypyridin-2-ylmethyl)phenyl]-7—(4-methylphenyl)-2,3-dihydro-1-benzoxepine-4-carboxamide] displayed a melting point of 206 to 208 °C.

Molecule `Cc1ccc(-c2ccc3c(c2)C=C(C(=O)Nc2ccc(CP4(=O)OCCCO4)cc2)CCO3)cc1` [Ref Ex 51, 2—(4—(7—(4-methylphenyl)-2,3-dihydro-1-benzoxepin-4-carbonylamino)benzyl)-1,3,2-dioxaphosphorinane-2-oxide] registered a melting point of 268 to 269 °C.

Regarding `CN(Cc1ccc(NC(=O)C2=Cc3cc(-c4cccnc4)ccc3OCC2)cc1)C1CCOCC1` [Compound 146, 7—(3-pyridyl)-N-(4—((N-tetrahydropyran-4-yl-N-methylamino)-methyl)phenyl)-2,3-dihydro-1-benzoxepine-4-carboxamide], the melting point was 158 to 159 °C.

Molecule `CN(C)c1ccc(-c2ccc3c(c2)C=C(C(=O)Nc2ccc(CP4(=O)CCCCC4)cc2)CCO3)cc1.Cl` registered a melting point of 162 to 163 °C.

In the case of `Cc1ccc(-c2ccc3c(c2)C=C(C(=O)Nc2ccc(CN(C)C4CCOCC4)cc2)CCN3C=O)cc1` [Compound 317, 1-formyl-7-(4-methylphenyl)-N-[4-[[N-methyl-N-(tetrahydro-2H-pyran-4-yl)amino]methyl]phenyl]-2,3-dihydro-1-benzazepine-4-carboxamide], the melting point is 229 to 230.5 °C.

On to `CN(Cc1ccc(NC(=O)C2=Cc3cc(-c4ccc(-n5ccnc5)cc4)ccc3OCC2)cc1)C1CCOCC1` [Compound 153, 7—(4—(1-imidazolyl)phenyl)-N-(4—((N-tetra-hydropyran-4-yl-N-methylamino)methyl)phenyl)-2,3-dihydro-1-benzoxepine-4-carboxamide], for which the melting point lay within 194 to 195 °C.

In turn, `O=C(C=Cc1cccc(-c2ccc(F)cc2)c1)Nc1ccc(CN2CCCCC2)cc1` [Compound 83, 1—(4—(3—(4-fluoro-phenyl)cinnamoylamino)benzyl)piperidine] had a melting point of 166 to 167 °C.

In the case of `Cc1ccc(-c2ccc3c(c2)C=C(C(=O)Nc2ccc(CN(C)C4CCOCC4)cc2)CCN3S(=O)(=O)C(F)(F)F)cc1` [Compound 321, 7-(4-methylphenyl)-N-[4-[[N-methyl-N-(tetrahydro-2H-pyran-4-yl)amino]methyl]-phenyl]-1-[(trifluoromethyl)sulfonyl]-2,3-dihydro-1-benzazepine-4-carboxamide], the melting point fell in the range of 185 to 187 °C.

In turn, `Cc1ccc(-c2cccc(/C=C/C(=O)Nc3ccc(C(O)c4ccccn4)cc3)c2)cc1` (stereo not shown) [Compound 79, (E)-N-[4-[hydroxy(2-pyridyl)methyl]phenyl]-3—(4-methylphenyl)cinnamamide] displayed a melting point of 162 to 165 °C.

For `CCOc1ccc(-c2ccc3c(c2)C=C(C(=O)Nc2ccc(CN(C)C4CCC5(CC4)OCCO5)cc2)CCO3)cc1` [Compound 287, 7-(4-ethoxyphenyl)-N-[4-[N-(4,4-ethylenedioxycyclohexyl)-N-methylaminomethyl]-phenyl]-2,3-dihydro-1-benzoxepine-4-carboxamide], the melting point fell in the range of 172 to 174 °C.

For the molecule `CSc1ccc(-c2ccc3c(c2)C=C(C(=O)Nc2ccc(CN(C)C4CCOCC4)cc2)CCO3)cc1` [Compound 226, N-[4-[N-methyl-N-(tetrahydropyran-4-yl)aminomethyl]-phenyl]-7—(4-methylthiophenyl)-2,3-dihydro-1-benzoxepine-4-carboxamide], the melting point fell in the range of 180 to 186 °C.

Consider `COc1ccc(-c2ccc3c(c2)C=C(C(=O)Nc2ccc(CN(C)C4CCOCC4)cc2)CCS3)cc1` [Compound 282, 7-(4-methoxyphenyl)-N-[4-[N-methyl-N-(tetrahydropyran-4-yl)aminomethyl]phenyl]-2,3-dihydro-1-benzothiepine-4-carboxamide], for which the melting point was in the range of 162 to 164 °C.

Consider `COCCN(C)Cc1ccc(NC(=O)C2=Cc3cc(-c4ccc(C)cc4)ccc3OCC2)cc1` [Compound 314, N-(4-((N-(2-methoxyethyl)-N-methylamino)methyl)phenyl)-7-(4-methylphenyl)-2,3-dihydro-1-benzoxepine-4-carboxamide], for which the melting point was in the range of 121 to 122 °C.

`Cc1ccc(-c2cccc(/C=C/C(=O)Nc3ccc(Cc4cccc[n+]4[O-])cc3)c2)cc1` [Compound 191, (E)-N-[4—(1-oxidopyridin-2-ylmethyl)phenyl]-3—(4-methylphenyl)cinnamamide] came in with a melting point of 183 to 185 °C.

Regarding `Cc1ccc(-c2ccc3c(c2)C=C(C(=O)Nc2ccc(Cc4cccc[n+]4[O-])cc2)CO3)cc1` [Compound 200, N-[4—(1-oxidopyridin-2-ylmethyl)phenyl]-6—(4-methylphenyl)-2H-1-benzopyran-3-carboxamide], the melting point fell in the range of 261 to 263 °C.

The molecule `CN(Cc1ccc(NC(=O)C2=Cc3cc(-c4ccc(N5CCCC5)cc4)ccc3OCC2)cc1)C1CCOCC1` [Compound 150, 7—(4—(pyrrolidin-1-yl)phenyl)-N-(4—((N-tetrahydropyran-4-yl-N-methylamino)-methyl)phenyl)-2,3-dihydro-1-benzoxepine-4-carboxamide] displayed a melting point of 210 to 211 °C.

`Cc1ccc(-c2ccc3c(c2)C=C(C(=O)Nc2ccc(CN(C(C)C)C(C)C)cc2)CCO3)cc1` [Compound 119, N-(4—((diisopropylamino)methyl)phenyl)-7—(4-methylphenyl)-2,3-dihydro-1-benzoxepine-4-carboxamide] returned a melting point of 152 to 153 °C.

For `Cc1ccc(-c2ccc3c(c2)C=C(C(=O)Nc2ccc(CNCC4CCCCC4)cc2)CCO3)cc1` [Compound 122, N-(4—((cyclohexylmethyl)aminomethyl)phenyl)-7—(4-methylphenyl)-2,3-dihydro-1-benzoxepine-4-carboxamide], the melting point lay in the range of 154 to 155 °C.

The melting point is the temperature, or range, at which the solid turns liquid.
